The values that follow come from article PMC6941357, “An in vitro toolbox to accelerate anti-malarial drug discovery and development” (Malaria Journal, 2020).

≈ marks a conversion by molar mass, not a printed value. Where “and” joins values, the source holds several entries; their conditions need not be identical. Equal entries are not always repeated. Bounds are passed on as bounds.

What is called microsomal CLint is the rate of metabolic loss divided by the concentration. One may read the logD as lipophilicity at a set pH, counting ionised and neutral species. Higher therefore signals higher lipophilicity. One may read the solubility as the concentration that dissolves in the medium under given conditions. Usually Papp B→A stands for the apparent permeability from the basolateral to the apical side of a cell layer. By Papp A→B is commonly meant the apparent permeability from the apical to the basolateral side of a cell layer.

Data set [1] is described as follows: in vitro. As to conditions: human, microsomes. As to the method: The metabolic stability assay was adapted from a previously published method. […] Reactions were quenched at 2, 5, 15, 30 and 60 min by the addition of acetonitrile containing 150 ng/mL diazepam as internal standard. Control samples (containing no cofactor) were included (quenched at 2, 30 and 60 min) to monitor degradation in the absence of cofactor. Concentrations were determined by LC–MS (Additional file 1: Table S2) by comparison to the response for a single point calibration standard prepared in quenched microsomal matrix.
Test compound concentration versus time data were fit using an exponential decay function to determine the first-order rate constant for substrate depletion. Where deviation from first-order kinetics was evident, only the initial linear portion of the logarithmic profile was utilized to determine the initial degradation rate constant (k, min^−1). Each substrate depletion rate constant was then used to calculate the in vitro intrinsic clearance value (CLint, in vitro, µL/min/mg protein) using Eq.
Unbound in vitro CLint values were obtained by dividing the measured CLint by the measured fu in microsomes.

The subject of data set [2] is human liver microsomes. The conditions noted are these: microsomal protein 0.5 mg/mL; ref [23]–[28] of Additional file 1; cited from earlier work.
For data set [3] the following is noted: human; cited from earlier work.
Data set [4] is described as follows: Octanol/pH 7.4 buffer partition coefficient, shake flask. The conditions noted are these: octanol/pH 7.4 phosphate buffered saline, pH 7.4. As to the method:
Partition coefficients between octanol and pH 7.4 buffer were measured using a shake flask method. A stock solution of test compound in octanol was prepared at a concentration between 3 and 30 mg/mL based on the expected partition coefficient value. This stock solution was then diluted 3- and 10-fold with octanol and used to prepare the octanol phase for the partitioning experiments. Two different dilutions were used to confirm that there were no saturation effects. Phosphate buffered saline was prepared by combining 67 mM disodium hydrogen orthophosphate and sodium dihydrogen orthophosphate (both prepared in 43 mM NaCl) to a final pH of 7.4.
Partitioning experiments were conducted by mixing equal volumes of the octanol (containing test compound) and aqueous phases and placing on a vibrating plate mixer in an incubator at 37 °C. […] An aliquot of the aqueous phase was carefully removed and centrifuged again to ensure no contamination from the octanol phase before sampling in duplicate and diluting with aqueous methanol for analysis. Diluted samples were analysed by LC–MS along with calibration standards (Additional file 1: Table S2) and partition coefficients were calculated from the ratio of the mean octanol to buffer concentration after accounting for the dilution factors. The partitioning results for the two time points were used to confirm that the partitioning experiment had reached equilibrium.

Data set [5] in a line: Solubility in biorelevant media. Here is the method: Solubility of each active pharmaceutical ingredient was evaluated at 37 °C in pH 7.4 phosphate buffered saline (prepared as described for the partitioning experiments), fasted (FaSSIF-V2) and fed (FeSSIF-V2) state simulated intestinal fluids and fasted state simulated gastric fluid (FaSSGF) as described by Jantratid et al.. […] Samples were vortexed and placed in a 37 °C incubator on an orbital mixer (IKA® VXR basic Vibrax® orbital mixer) set at 600 rpm. Sampling times were 1 h for FaSSGF or 5–6 h for FaSSIF-V2, FeSSIF-V2, and PBS. These times were used to reflect the maximal likely residence times within the stomach and small intestine, respectively. Sampling was carried out by centrifuging each sample at 10,000 rpm for 3 min, transferring 300 µL aliquots into fresh Eppendorf tubes and centrifuging these tubes again at 10,000 rpm for 3 min. Triplicate aliquots of the supernatant were then removed and diluted 1:2 in 50% aqueous methanol and then again in 50% aqueous acetonitrile to be within the analytical concentration range. Samples were analysed by LC–MS along with calibration standards (Additional file 1: Table S2).

The nature of data set [6]: Bidirectional permeability across Caco-2 cell monolayers. As to conditions: human. Here is the method:
Bidirectional permeability was assessed across Caco-2 cell monolayers as described previously. Briefly, permeability experiments were performed using either aqueous transport buffer (pH 7.4 Hanks balanced salt solution containing 20 mM HEPES) or human plasma (Australian Red Cross Blood Service) in both the apical and basolateral chambers. […] The final DMSO concentration in the donor solution was 0.1% v/v.
Samples from the donor chamber were taken at the start and end of the experiment. […] Donor and acceptor samples were stored frozen at − 80 °C until analysis by LC–MS (Additional file 1: Table S2) with sample preparation as described previously. The mass balance and apparent permeability coefficient (Papp) were calculated as previously described.
Where human plasma was used as the transport medium, Papp values were calculated as shown above, with correction for the fraction unbound (fu) in the donor solution Cdonorinitial×fu with fu determined at a similar concentration to that used in the transport experiment. The apparent flux of lucifer yellow was based on an endpoint measurement assuming no lag time. The efflux ratio was calculated as the ratio of the mean B–A to A–B Papp values.
For orientation: Caco-2 cells form a polarised layer with tight junctions and transporters.

The nature of data set [7]: Solubility limited absorbable dose (SLAD) calculation with predicted human jejunal Peff. From the text:
Predicted Peff values were obtained from a calibration plot of literature Peff values vs measured Caco-2 Papp using either buffer or plasma as the transport medium (see Results section).

For the molecule `CCOc1ccc(NC(C)=O)cc1` [phenacetin], the microsomal CLint at 1 µM in data set [1] (pH 7.4, Mean CLint) is 21.4 µL/min/mg; in data set [1] (pH 7.4, Range HLM CLint), 13.3 to 31.1 µL/min/mg. In data set [2], the “Literature CLint” value was 27 µL/min/mg and 22.2 µL/min/mg.
Take `Cc1ncc2n1-c1ccc(Cl)cc1C(c1ccccc1F)=NC2` [midazolam]: the microsomal CLint at 1 µM in data set [1] (pH 7.4, Mean CLint, control compounds, mean (S.D.)) was 272 µL/min/mg; in data set [1] (pH 7.4, Range HLM CLint, control compounds, 6–21 independent measurements, 0.4 mg/mL), 240 to 300 µL/min/mg. Besides, the “Literature CLint” value in data set [2] was 353 µL/min/mg and 178 µL/min/mg and 287 µL/min/mg.
`c1cc([C@H]2CC[C@]3(CC2)OO[C@]2(O3)C3CC4CC(C3)CC2C4)ccc1OCCN1CCOCC1` [OZ439]: the Food effect entry in data set [3] is “yes”. In addition, the V/F in data set [3] was 1570 L. The logD in data set [4] is > 5. Moreover, the FaSSGF solubility in data set [5] (FaSSGF) is 79 µg/mL. Also, in data set [5] (FaSSGF, 37 °C, fassgf or other biorelevant, thermodynamic from solid), the solubility at 1 h was 79 µg/mL and 168 µM. The molecule also showed a FaSSIF solubility in data set [5] (FaSSIF) of 40.6 µg/mL. The solubility is 40.6 µg/mL and 87 µM in data set [5] (FaSSIF-V2, 37 °C, fassif, thermodynamic from solid); 526 µg/mL and 1120 µM in data set [5] (FeSSIF-V2, 37 °C, fessif, thermodynamic from solid); 0.085 µg/mL and 0.181 µM in data set [5] (phosphate buffered saline pH 7.4, 37 °C, pH 7.4, aqueous buffer, thermodynamic from solid); 40.6 µg/mL (≈ 86.5 µM) in data set [7] (FaSSIF). In addition, the Papp B→A in data set [6] (Caco-2) was > 300 ×10⁻⁶ cm/s. In data set [6] (Caco-2, A–B Papp, matrix: human plasma, corrected for fu), the Papp A→B was > 300 ×10⁻⁶ cm/s. Moreover, the “An (absorption number)” value in data set [7] (Peff × tres/R, minimum 1) was 13. Moreover, the SLAD in data set [7] (Ssi × V (500 mL) × Mp) is on record as 270 mg. For the same molecule, in data set [7] (from Caco-2 Papp via calibration plot), the “Predicted human Peff” value is reported as 11 10^−4 cm/s.
